In patent US6093732A, “4-hydroxyquinoline-3-carboxamides and hydrazides as antiviral agents” (Pharmacia & Upjohn Company, priority 1998, dated 2000):
Where a name gives a salt, the structure may show the parent alone.

What follows are molecules tested against T1, HCMV polymerase (Human cytomegalovirus, UniProt P08546) (assay: HCMV polymerase scintillation proximity assay (SPA), modified version). Conditions: CMV polymerase; Table 1; modified assay with 4.5 mM DTT, compounds in 100% DMSO; read-out: Antiviral Selective Polymerase IC50 Values, CMV.
T1 construct: made in house; host or cells: recombinant baculovirus-infected SF-9 cells
Type: biochemical
In short: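 SPA measuring 3H-dTTP (90 nM) incorporation on 6 nM biotinylated poly(dA)-oligo(dT) by SF-9-expressed enzyme, pH 7.5 HEPES/KCl/MgCl2/BSA buffer with or without 2 mM CHAPS. Run at 25° C or 37° C, stopped with EDTA while linear (HCMV 30 min); IC50 from linear regression. Modified format adds 4.5 mM DTT, compounds diluted in 100% DMSO.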

T1 sequence (P08546 whole entry): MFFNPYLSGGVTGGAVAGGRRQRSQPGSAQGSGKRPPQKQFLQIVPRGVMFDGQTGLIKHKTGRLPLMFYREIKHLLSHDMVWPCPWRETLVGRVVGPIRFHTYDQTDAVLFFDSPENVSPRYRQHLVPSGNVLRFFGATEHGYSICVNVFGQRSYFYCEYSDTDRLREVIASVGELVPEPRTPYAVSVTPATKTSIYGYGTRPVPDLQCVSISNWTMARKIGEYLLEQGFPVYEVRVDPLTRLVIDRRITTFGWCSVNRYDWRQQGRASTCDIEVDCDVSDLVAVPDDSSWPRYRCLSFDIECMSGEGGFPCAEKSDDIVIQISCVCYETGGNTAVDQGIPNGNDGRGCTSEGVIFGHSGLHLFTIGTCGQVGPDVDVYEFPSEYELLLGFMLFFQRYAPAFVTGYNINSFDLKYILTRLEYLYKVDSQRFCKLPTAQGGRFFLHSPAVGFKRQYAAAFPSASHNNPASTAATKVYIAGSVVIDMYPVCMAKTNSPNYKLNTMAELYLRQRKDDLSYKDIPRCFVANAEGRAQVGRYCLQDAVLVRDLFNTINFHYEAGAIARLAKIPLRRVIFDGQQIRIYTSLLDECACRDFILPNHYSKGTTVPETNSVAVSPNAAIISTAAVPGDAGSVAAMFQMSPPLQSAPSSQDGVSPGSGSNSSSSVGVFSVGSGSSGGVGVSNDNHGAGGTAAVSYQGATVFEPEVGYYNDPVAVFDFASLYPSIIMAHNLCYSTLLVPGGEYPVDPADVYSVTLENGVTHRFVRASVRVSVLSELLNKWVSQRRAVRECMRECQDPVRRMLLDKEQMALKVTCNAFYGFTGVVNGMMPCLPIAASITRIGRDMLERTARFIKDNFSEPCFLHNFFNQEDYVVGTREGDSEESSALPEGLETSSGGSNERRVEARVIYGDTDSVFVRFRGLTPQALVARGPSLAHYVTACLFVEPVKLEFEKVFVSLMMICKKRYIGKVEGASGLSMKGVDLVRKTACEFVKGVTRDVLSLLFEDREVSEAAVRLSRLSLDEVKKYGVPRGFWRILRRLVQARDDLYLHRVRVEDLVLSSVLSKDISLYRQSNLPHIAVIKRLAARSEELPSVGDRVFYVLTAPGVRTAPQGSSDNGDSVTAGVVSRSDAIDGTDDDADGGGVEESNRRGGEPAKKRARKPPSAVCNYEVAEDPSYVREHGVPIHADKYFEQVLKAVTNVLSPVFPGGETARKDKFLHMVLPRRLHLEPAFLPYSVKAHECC

| SMILES | IC50 [µM] |
| --- | --- |
| CCCc1ccc2ncc(C(=O)NCc3ccc(Cl)cc3)c(O)c2c1 [Example 151, N-(4-Chlorobenzyl)-4-hydroxy-6-propyl-3-quinolinecarboxamide] | 0.91 |
| CC(O)C#Cc1ccc2ncc(C(=O)NCc3ccc(Cl)cc3)c(O)c2c1 (stereo not drawn) [Example 152, N-(4-Chlorobenzyl)-4-hydroxy-6-(3-hydroxy-1-butynyl)-3-quinolinecarboxamide] | 5.4 |
| CC(=O)/C=C/c1cc(F)c2ncc(C(=O)NCc3ccc(Cl)cc3)c(O)c2c1 [Example 153, N-(4-Chlorobenzyl)-8-fluoro-4-hydroxy-6-[(E)-3-oxo-1-butenyl]-3-quinolinecarboxamide] | 8.3 |
| O=C(NCc1ccc(Cl)cc1)c1cnc2c(F)cc(CCCCCO)cc2c1O [Example 154, N-(4-Chlorobenzyl)-8-fluoro-4-hydroxy-6-(5-hydroxypentyl)-3-quinolinecarboxamide] | 3.4 |
| CC(C)(C)OC(=O)NCCCCC(NC(=O)OC(C)(C)C)C(=O)OCCCc1cc(F)c2ncc(C(=O)NCc3ccc(Cl)cc3)c(O)c2c1 (stereo not drawn) [Example 155, 3-(3{[(4-Chlorobenzyl)amino]carbonyl}-8-fluoro-4-hydroxy-6-quinolinyl)propyl 2,6-bis[(tert-butoxycarbonyl)amino]hexanoate] | ≥ 50 |
| NCCCCC(N)C(=O)OCCCc1cc(F)c2ncc(C(=O)NCc3ccc(Cl)cc3)c(O)c2c1 (stereo not drawn) [Example 156, 3-(3-{[(4-Chlorobenzyl)amino]carbonyl}-8-fluoro-4-hydroxy-6-quinolinyl)propyl 2,6-diaminohexanoate, trifluoroacetic acid salt] | 15.9 |
| O=C(NCc1ccc(Cl)cc1)c1cnc2c(F)cc(CN3CCOCC3)cc2c1O [Example 158, N-(4-Chlorobenzyl)-8-fluoro-4-hydroxy-6-(4-morpholinylmethyl)-3-quinolinecarboxamide] | < 0.78 |
| O=C(Nc1ccccc1)OCCCc1cc(F)c2ncc(C(=O)NCc3ccc(Cl)cc3)c(O)c2c1 [Example 159, 3-(3-{[(4-Chlorobenzyl)amino]carbonyl}-8-fluoro-4-hydroxy-6-quinolinyl)propyl phenylcarbamate] | 5 |
| CC(=O)CCc1cc(F)c2ncc(C(=O)NCc3ccc(Cl)cc3)c(O)c2c1 [Example 160, N-(4-Chlorobenzyl)-8-fluoro-4-hydroxy-6-(3-oxobutyl)-3-quinolinecarboxamide] | 1.2 |
| O=C(NCc1ccc(Cl)cc1)c1cnc2ccc(COCCO)cc2c1O [Example 163, N-(4-Chlorobenzyl)-4-hydroxy-6-[(2-hydroxyethoxy)methyl]-3-quinolinecarboxamide] | 0.59 |
| O=C(NCc1ccc(Cl)cc1)c1cnc2ccc(COC(CO)CO)cc2c1O [Example 164, N-(4-Chlorobenzyl)-4-hydroxy-6-{[2-hydroxy-1-(hydroxymethyl)ethoxy]methyl}-3-quinolinecarboxamide] | 2.3 |
| COC(=O)c1ccc2ncc(C(=O)NCc3ccc(Cl)cc3)c(O)c2c1 [Example 165, Methyl 3-{[(4-chlorobenzyl)amino]carbonyl}-4-hydroxy-6-quinolinecarboxylate] | 6.7 |
| O=C(NCc1ccc(Cl)cc1)c1cnc2ccc(CO)cc2c1O [Example 166, N-(4-Chlorobenzyl)-4-hydroxy-6-(hydroxymethyl)-3-quinolinecarboxamide] | 7 |
| Cc1cc(Cl)cc2c(O)c(C(=O)NCc3ccc(Cl)cc3)cnc12 [Example 167, 6-Chloro-N-[(4-chlorophenyl)methyl]-4-hydroxy-8-methyl-3-quinolinecarboxamide] | 5 |
| O=C(NCc1ccc(Cl)cc1)c1cnc2cc(F)c(F)cc2c1O [Example 169, N-[(4-Chlorophenyl)methyl]-6,7-difluoro-4-hydroxy-3-quinolinecarboxamide] | 3.7 |
| CSc1cc(F)c2ncc(C(=O)NCc3ccc(Cl)cc3)c(O)c2c1 [Example 170, N-(4-Chlorobenzyl)-8-fluoro-4-hydroxy-6-(methylsulfanyl)-3-quinolinecarboxamide] | 4.4 |
| O=C(NCc1ccc(Cl)cc1)c1cnc2c(F)cc(SCCO)cc2c1O [Example 171] | 1.9 |
| NCCSc1cc(F)c2ncc(C(=O)NCc3ccc(Cl)cc3)c(O)c2c1 [Example 172, 6-[(2-Aminoethyl)sulfanyl]-N-(4-chlorobenzyl)-8-fluoro-4-hydroxy-3-quinolinecarboxamide, hydrobromide] | 35.1 |
| COCCOCSc1cc(F)c2ncc(C(=O)NCc3ccc(Cl)cc3)c(O)c2c1 [Example 173, N-(4-Chlorobenzyl)-8-fluoro-4-hydroxy-6-{[(2-methoxyethoxy)-methyl]sulfanyl}-3-quinolinecarboxamide] | 12.8 |
| O=C(NCc1ccc(Cl)cc1)c1cnc2c(F)cc(SCCN3CCOCC3)cc2c1O [Example 174] | 28.9 |

| SMILES | IC50 [µM] |
| --- | --- |
| C[S+]([O-])c1cc(F)c2ncc(C(=O)NCc3ccc(Cl)cc3)c(O)c2c1 (stereo not drawn) [Example 175, N-(4-Chlorobenzyl)-8-fluoro-4-hydroxy-6-(methylsulfinyl)-3-quinolinecarboxamide] | 7.2 |
| CS(=O)(=O)c1cc(F)c2ncc(C(=O)NCc3ccc(Cl)cc3)c(O)c2c1 [Example 176, N-(4-Chlorobenzyl)-8-fluoro-4-hydroxy-6-(methylsulfonyl)-3-quinolinecarboxamide] | 11.4 |
| O=C(NCc1ccc(Cl)cc1)c1cnc2c(F)cc([S+]([O-])CCO)cc2c1O (stereo not drawn) [Example 177, N-(4-Chlorobenzyl)-8-fluoro-4-hydroxy-6-[(2-hydroxyethyl)sulfinyl]-3-quinolinecarboxamide] | 7.2 |
| O=C(NCc1ccc(Cl)cc1)c1cnc2c(F)cc(C(=O)N3CCOCC3)cc2c1O [Example 180, N-(4-Chlorobenzyl)-8-fluoro-4-hydroxy-6-(4-morpholinylcarbonyl)-3-quinolinecarboxamide] | 28.2 |
| O=C(NCCO)c1cc(F)c2ncc(C(=O)NCc3ccc(Cl)cc3)c(O)c2c1 [Example 181, N^3-(4-Chlorobenzyl)-8-fluoro-4-hydroxy-N^6-(2-hydroxyethyl)-3,6-quinolinedicarboxamide] | 39.2 |
| CN(C)C(=O)c1cc(F)c2ncc(C(=O)NCc3ccc(Cl)cc3)c(O)c2c1 [Example 182, N^3-(4-Chlorobenzyl)-8-fluoro-4-hydroxy-N^6,N^6-dimethyl-3,6-quinolinedicarboxamide] | 5 |
| O=C(NCCc1ccc(O)cc1)c1cc(F)c2ncc(C(=O)NCc3ccc(Cl)cc3)c(O)c2c1 [Example 183, N^3-(4-Chlorobenzyl)-8-fluoro-4-hydroxy-N^6-(4-hydroxyphenethyl)-3,6-quinolinedicarboxamide] | 32 |
| NC(=O)c1cc(F)c2ncc(C(=O)NCc3ccc(Cl)cc3)c(O)c2c1 [Example 184, N^3-(4-Chlorobenzyl)-8-fluoro-4-hydroxy-3,6-quinolinedicarboxamide] | 30.4 |
| O=C(NCc1ccc(Cl)cc1)c1cc(F)c2ncc(C(=O)NCc3ccc(Cl)cc3)c(O)c2c1 [Example 185, N^3,N^6 -Bis(4-chlorobenzyl)-8-fluoro-4-hydroxy-3,6-quinolinedicarboxamide] | 32.8 |
| Nc1cc(F)c2ncc(C(=O)NCc3ccc(Cl)cc3)c(O)c2c1 [Example 186, 6-Amino-N-(4-chlorobenzyl)-8-fluoro-4-hydroxy-3-quinolinecarboxamide] | 13.8 |
| COc1ccc(S(=O)(=O)Nc2cc(F)c3ncc(C(=O)NCc4ccc(Cl)cc4)c(O)c3c2)cc1 [Example 187, N-(4-Chlorobenzyl)-8-fluoro-4-hydroxy-6-{[(4-methoxyphenyl)-sulfonyl]amino}-3-quinolinecarboxamide] | 17.7 |
| O=C(NCc1ccc(Cl)cc1)c1cnc2ccc(NCCO)cc2c1O [Example 188, N-(4-Chlorobenzyl)-4-hydroxy-6-[(2-hydroxyethyl)amino]-3-quinolinecarboxamide] | 2.1 |
| CCN(CCO)c1ccc2ncc(C(=O)NCc3ccc(Cl)cc3)c(O)c2c1 [Example 189, N-(4-Chlorobenzyl)-6-[ethyl(2-hydroxyethyl)amino]-4-hydroxy-3-quinolinecarboxamide] | 19.4 |
| O=C(NCc1ccc(Cl)cc1)c1cnc2ccc(N3CCOC3=O)cc2c1O [Example 190, N-(4-Chlorobenzyl)-4-hydroxy-6-(2-oxo-1,3-oxazolidin-3-yl)-3-quinolinecarboxamide] | 2.7 |
| O=C(NCc1ccc(Cl)cc1)c1cnc2c(F)cc(S(=O)(=O)NCc3cccc4ccccc34)cc2c1O [Example 192, N-(4-Chlorobenzyl)-8-fluoro-4-hydroxy-6-{[(1-naphthylmethyl)aminor]-sulfonyl}-3-quinolinecarboxamide] | 1.6 |
| O=C(NCc1ccc(Cl)cc1)c1cnc2c(F)cc(S(=O)(=O)NCCc3c[nH]c4ccccc34)cc2c1O [Example 193, N-(4-Chlorobenzyl)-8-fluoro-4-hydroxy-6-({[2-(1H-indol-3-yl)ethyl]-amino)sulfonyl)-3-quinolinecarboxamide] | 2.7 |
| O=C(NCc1ccc(Cl)cc1)c1cnc2c(F)cc(S(=O)(=O)NCc3ccco3)cc2c1O [Example 194, N-(4-Chlorobenzyl)-8-fluoro-6-{[(2-furylmethyl)amino]sulfonyl}-4-hydroxy-3-quinolinecarboxamide] | 15.3 |
| O=C(NCc1ccc(Cl)cc1)c1cnc2c(F)cc(S(=O)(=O)N(CCO)CCO)cc2c1O [Example 195, 6-{[Bis(2-hydroxyethyl)amino]sulfonyl}-N-(4-chlorobenzyl)-8-fluoro-4-hydroxy-3-quinolinecarboxamide] | 18.3 |
| CCOC(=O)CNS(=O)(=O)c1cc(F)c2ncc(C(=O)NCc3ccc(Cl)cc3)c(O)c2c1 [Example 196, Ethyl 2-{[(3-{[(4-chlorobenzyl)amino]carbonyl}-8-fluoro-4-hydroxy-6-quinolinyl)sulfonyl]amino) acetate] | 19.4 |
